From article PMC11274883, “Anticancer Effect of Pt^[sequence], Pt^II5MESS, Pt^II56MESS and Their Platinum(IV)-Dihydroxy Derivatives against Triple-Negative Breast Cancer and Cisplatin-Resistant Colorectal Cancer” (Cancers, 2024)

Key:
Type in all cases: cell-based
[1] = test system: MDA−MB−231 spheroids; assay: 3D bioprinted spheroid cytotoxicity (WST-1); settings: 72 h, mean ± SEM
Text: (§1) To evaluate the cytotoxic effect of platinum(II) and (IV) complexes in 3D cell culture, MDA−MB−231 or HT29 cells were used to bioprint networks or spheroids with the non-contact drop-on-demand 3D RASTRUM bioprinter (Inventia Life Science, Alexandria, NSW, Australia). The 3D cultures use two constituents: bioink and activator. Cell pellets (2 × 10^6 cells) were resuspended in an activator reagent which forms an instant gel after its addition to the bioink by the bioprinter. The 3D large plug cell model with polyethylene glycol bioinks formulated to mimic the properties of in vivo tissue were chosen as follows. Matrix Px02.31 (activator F177 and bioink F242 with RGD: Fibronectin) was used for MDA−MB−231 3D embedded networks, Px02.00 (activator F177 and bioink F119 without RGD additives, Table S1) was used for MDA−MB−231 spheroids and matrix #Px02.09 (activator F177 and bioink F236 with adhesion peptides including, RGD: Fibronectin, and GFOGER: collagen type I to recapitulate rich in vivo tissue extracellular environments) was used for HT29 spheroids (Inventia Life Science) (Table S1). Each cell line was printed at 10,000 cells/well and loaded with the bioink fluids into the selected printer cartridge. After the automated priming of all fluids into the printer nozzles, each cell line was individually printed on tissue culture plates (Nunc^TM MicroWell^TM 96-Well, Nunclon Delta-Treated, Flat-Bottom Microplate, ThermoFisher #167008), with RASTRUM creating the 3D Large Plug across the 96-well plate. Following completion of the print run, 200 μL DMEM culture medium was added to each well using multichannel pipettes. The plate was then incubated for 7 days (humidified incubator with 5% CO2 at 37 °C) for compact and homogenous spheroid formation before the cytotoxicity assay. When the spheroids developed, post-7-day incubation, media was removed and replaced with 100 µL DMEM. […] Cytotoxicity was then assessed using the WST-1 assay as previously described in Section 2.3.

[2] = test system: HT29 spheroids; assay: 3D bioprinted spheroid cytotoxicity (WST-1); settings: 72 h, mean ± SEM
Text: as §1

[3] = test system: MDA−MB−231 cells; assay: TMRE mitochondrial membrane potential assay; settings: complexes at IC50, FCCP 20 µM
Method in brief: (§2)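 Cells treated with each complex at its IC50 concentration for 24, 48 or 72 h, then stained with 1 µM TMRE for 30 min and washed before fluorescence scanning. Three independent experiments in triplicate.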

[4] = test system: HT29 cells; assay: TMRE mitochondrial membrane potential assay; settings: complexes at IC50, FCCP 20 µM
Method in brief: as §2

[5] = test system: HT29 cells; assay: Western blot protein expression; settings: HT29, IC50, 72 h
Protocol: Protein extraction was then performed on ice. Media were collected in Eppendorf tubes, and centrifuged at 500× g for 5 min at 4 °C. Meanwhile, 200 µL of lysis RIPA buffer, made up of 150 mM NaCl, 50 mM Tris-HCl, pH 8.0, 0.1% Triton X-100, 0.5% sodium deoxycholate, 0.1% SDS and 1 mM sodium orthovanadate, was added to each well, the cells were scrapped into the buffer, and added to the media-derived pellets. The tubes were placed on the shaker for 10 min at 4 °C. Then, cell extracts were centrifuged at 12,000× g for 15 min at 4 °C, and the supernatants (containing the proteins) were collected. The Bio-Rad-DC protein assay (Bio-Rad, Hercules, CA, USA) was used to assess protein content. Laemmli protein sample buffer (4×) with β-mercaptoethanol (9%) was used to prepare a final protein concentration of 20 µg. The samples were then heated at 100 °C for 5 min. A final volume of 30 µL of each sample was added per well and subjected to SDS-PAGE using Bolt 4–12% Bis-Tris gel (Thermo Fisher, Eugene, OR, USA) at 80 V for 30 min and then 120 V for 60 min with PageRuler™ Prestained Protein or SeeBlue Prestained Protein Ladder (Thermo Fisher, Eugene, OR, USA). Proteins were subsequently transferred to a 0.2 µm PVDF membrane (Amersham, Cytiya) using a semi-dry blot transfer. The membrane was then blocked in 5% BSA in TBST, for 1 h and probed overnight at 4 °C with primary antibodies against several cell proliferation, apoptotic, anti-apoptotic, microtubule and autophagic protein markers listed in Table S7 as per the manufacturer’s protocol. The primary antibody was then removed, washed three times for 10 min with TBST and then membranes were treated with either mouse or rabbit HRP-coupled secondary antibodies (1/3000) for 1 h and 30 min. Protein band detection was then performed using the chemiluminescence ECL kit (Thermo Fisher, Eugene, OR, USA). Blot images were obtained using the Odyssey® FC imaging system (LI-COR Biosciences, Lincoln, NE, USA) and band intensities were quantified relatively to glyceraldehyde-3-phosphate dehydrogenase (GAPDH) and then normalised each replicate gel to its corresponding no treatment control using the ImageJ v1.53t software (National Institutes of Health, Bethesda, MD, USA). Each marker results from the same experiment or parallel experiment where the gels were processed in parallel. Three independent experiments per marker were conducted.

[6] = representative blot Figure S30G
[7] = representative blot Figure S30H

N[C@H]1CCCC[C@@H]1N.O=[N+]([O-])[O-].O=[N+]([O-])[O-].[Pt+2].c1cnc2c(c1)ccc1cccnc12 [[Pt(1,10-phenanthroline)(1S,2S-diaminocyclohexane)](NO3)2]
IC50 [1]: 5.44 ± 1.35 µM
IC50 [2]: 3.93 ± 1.46 µM
MtMp (mitochondrial membrane potential) ([3]; MDA−MB−231, 24 h): 258.17 RFU
MtMp (mitochondrial membrane potential) ([3]; MDA−MB−231, 48 h): 218.19 RFU
MtMp (mitochondrial membrane potential) ([3]; MDA−MB−231, 72 h): 169.95 RFU
MtMp (mitochondrial membrane potential) ([4]; HT29, 24 h): 321.85 RFU
MtMp (mitochondrial membrane potential) ([4]; HT29, 48 h): 256.63 RFU
MtMp (mitochondrial membrane potential) ([4]; HT29, 72 h): 236.73 RFU
β-actin/GAPDH normalized to control (1) ([5]; representative blot Figure S28A): 0.1267
β-tubulin/GAPDH normalized to control (1) ([5]; representative blot Figure S28B): 0.232
α-tubulin/GAPDH normalized to control (1) ([5]; representative blot Figure S28C): 0.09086
p-AKT/AKT/GAPDH normalized to control (1) ([5]; representative blot Figure S29A): 0.09219
p-ERK/ERK/GAPDH normalized to control (1) ([5]; representative blot Figure S29B): 0.9509
p53/GAPDH normalized to control (1) ([5]; representative blot Figure S29C): 4.791
p21/GAPDH normalized to control (1) ([5]; representative blot Figure S29D): 3.18
Bax/GAPDH normalized to control (1) ([5]; representative blot Figure S30A): 3.407
Bcl2/GAPDH normalized to control (1) ([5]; representative blot Figure S30B): 0.2872
Cyt C/GAPDH normalized to control (1) ([5]; representative blot Figure S30C): 1.692
Procaspase 8/GAPDH normalized to control (1) ([5]; representative blot Figure S30D): 0.1633
Cleaved BID/GAPDH normalized to control (1) ([5]; representative blot Figure S30E): 1.611
Procaspase 9/GAPDH normalized to control (1) ([5]; representative blot Figure S30F): 0.1981
Cleaved caspase 3/GAPDH normalized to control (1) [5, 6]: 17.46
Procaspase 3/GAPDH normalized to control (1) [5, 6]: 0.4874
Cleaved PARP-1/GAPDH normalized to control (1) [5, 7]: 8.496
PARP-1/GAPDH normalized to control (1) [5, 7]: 0.2612
Beclin1/GAPDH normalized to control (1) ([5]; representative blot Figure S31A): 5.324
ATG5/GAPDH normalized to control (1) ([5]; representative blot Figure S31B): 0.9428
ATG16L1/GAPDH normalized to control (1) ([5]; representative blot Figure S31C): 3.844
ATG9A/GAPDH normalized to control (1) ([5]; representative blot Figure S31D): 0.465
ATG4B/GAPDH normalized to control (1) ([5]; representative blot Figure S31E): 0.6844
LC3B/GAPDH normalized to control (1) ([5]; representative blot Figure S31F): 2.121
